Where two headings read alike, the source gives them in different places.
Tests used:
human TLR7 = molecular target: T1, human TLR7 (Homo sapiens, UniProt Q9NYK1); experiment: Reporter gene assay: HEK293 cells stably transfected with human TLR7 and NF-kB-driven luciferase reporter; assay type: cell-based
T1 construct: expressed in transfected cells; host or cells: HEK 293 (human embryonic kidney 293), stably transfected; co-transfected pNifty-Luciferase reporter
T1 sequence (Q9NYK1 27-1049): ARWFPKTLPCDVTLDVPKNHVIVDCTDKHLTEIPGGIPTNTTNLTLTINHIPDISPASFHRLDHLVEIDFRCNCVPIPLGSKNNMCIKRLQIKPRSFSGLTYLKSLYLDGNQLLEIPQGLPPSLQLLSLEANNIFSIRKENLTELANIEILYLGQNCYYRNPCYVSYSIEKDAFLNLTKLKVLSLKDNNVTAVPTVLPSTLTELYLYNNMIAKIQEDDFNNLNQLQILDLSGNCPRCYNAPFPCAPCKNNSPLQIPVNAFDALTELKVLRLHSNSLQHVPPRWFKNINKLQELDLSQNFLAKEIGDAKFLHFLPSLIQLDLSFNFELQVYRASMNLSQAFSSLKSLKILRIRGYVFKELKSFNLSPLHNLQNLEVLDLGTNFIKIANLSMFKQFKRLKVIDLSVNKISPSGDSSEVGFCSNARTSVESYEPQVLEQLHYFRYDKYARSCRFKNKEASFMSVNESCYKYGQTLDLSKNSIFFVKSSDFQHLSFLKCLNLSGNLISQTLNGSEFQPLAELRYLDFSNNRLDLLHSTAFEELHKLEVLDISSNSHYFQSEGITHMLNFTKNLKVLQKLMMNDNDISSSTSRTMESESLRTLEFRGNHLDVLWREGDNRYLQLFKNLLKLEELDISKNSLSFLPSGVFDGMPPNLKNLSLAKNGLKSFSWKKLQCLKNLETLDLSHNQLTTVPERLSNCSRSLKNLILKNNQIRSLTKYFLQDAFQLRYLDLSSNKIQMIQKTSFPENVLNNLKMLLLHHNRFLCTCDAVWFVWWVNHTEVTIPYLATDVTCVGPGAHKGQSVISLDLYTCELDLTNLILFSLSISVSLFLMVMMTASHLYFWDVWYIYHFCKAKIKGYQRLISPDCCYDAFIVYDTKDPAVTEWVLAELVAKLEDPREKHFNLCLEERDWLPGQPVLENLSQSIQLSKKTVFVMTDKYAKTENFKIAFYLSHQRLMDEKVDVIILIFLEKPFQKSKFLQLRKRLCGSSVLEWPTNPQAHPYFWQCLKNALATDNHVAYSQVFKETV
Method: Human embryonic kidney 293 (HEK 293) cells were stably transfected with human TLR7 and an NF-kB-driven luciferase reporter vector (pNifty-Luciferase). As a control assay, normal Hek293 transfected with pNifty-Luc were used. Cells were cultured in DMEM supplemented with 2 mM L-glutamine, 10% heart inactivated FBS, 1% penicillin and streptomycin, 2 μg/ml puromycin (InvivoGen #ant-pr-5) and 5 μg/ml of blasticidin (Invitrogen #46-1120). Bright-Glo™ Luciferase assay buffer and substrate were supplied by Promega #E263B and #E264B (assay substrate and buffer respectively). 384 well clear-bottom plates were supplied by Greiner bio-one (#789163-G) and were custom bar-coded plates.
Cells were plated at 25,000 cells/well in 384-well plates in a final volume of 50 μl of media. Cells were allowed to adhere to the plates after overnight (18 hours) culture at 37° C. and 5% CO2. Serially diluted experimental and positive control compounds were then dispensed to each well and incubated for 7 hours at 37° C. and 5% CO2. Cells stimulated with DMSO alone also serve as negative controls. After the incubation, 30 μl of the pre-mix assay buffer and substrate buffer were added to each well according to manufacturer's instructions.
The EC50 value in those experiments is given as that concentration of the test compound in question that provoke a response halfway between the baseline and maximum responses. […] Such EC50 values are obtained relative to the activity of resiquimod set to 100%.

[1] = Binding to alum in 10 mM histidine buffer, LC-MS/MS of supernatant; assay type: physicochemical; conditions: 10 mM histidine buffer pH 6.8; final compound 0.1 mg/mL; 37° C. for 5 hours; 100% minus % unbound
Method: The resulting solution was diluted 10-fold with blank histidine buffer to a final compound concentration of 0.1 mg/mL. Diluted solutions were incubated at 37° C. for 5 hours. The samples were centrifuged at 14,000 rpm for 10 minutes to pellet the insoluble. The supernatant (along with an internal standard) was then evaluated by LC-MS/MS using a ballistic gradient (from 5% CH3CN-0.5% formic acid to 95% CH3CN-1.0% formic acid in 3.5 minutes) on a Waters Atlantis dC18 (50 mm×2.1 mm) column at room temperature against a calibration curve prepared at known compound concentrations ranging from 0.005 to 50 μM. The concentration in the supernatant was calculated as % unbound to alum compared to control; the % bound to alum was calculated as 100% minus % unbound.

[2] = HEK293 stably transfected with human TLR7 and NF-kB luciferase reporter, 7 hours incubation, relative to resiquimod set to 100%, read-out: Human TLR7 EC50 (nM) HEK293

With `Cc1ccc2c(c1)nc(N)c1ncc(CCc3ccc(OP(=O)(O)O)cc3C)cc12` [Compound 2, 4-(2-(5-amino-8-methylbenzo[f][1,7]naphthyridin-2-yl)ethyl)-3-methylphenyl dihydrogen phosphate] the EC50 (human TLR7; [2]) was 315 nM.
`Cc1ccc2c(c1)nc(N)c1ncc(CCc3ccc(OCP(=O)(O)O)cc3C)cc12` [Compound 3, (4-(2-(5-amino-8-methylbenzo[f][1,7]naphthyridin-2-yl)ethyl)-3-methylphenoxy)methylphosphonic acid] showed an EC50 (human TLR7) of 3170 nM.
In the case of `Cc1ccc2c(c1)nc(N)c1ncc(CCc3ccc(OCCCCC(F)(F)P(=O)(O)O)cc3C)cc12` [Compound 4, 5-(4-(2-(5-amino-8-methylbenzo[f][1,7]naphthyridin-2-yl)ethyl)-3-methylphenoxy)-1,1-difluoropentylphosphonic acid], the EC50 (human TLR7) is reported as 559 nM.
In the case of `Cc1ccc2c(c1)nc(N)c1ncc(CCc3ccc(OCCOCCOCCC(F)(F)P(=O)(O)O)cc3C)cc12` [Compound 6, 3-(2-(2-(4-(2-(5-amino-8-methylbenzo[f][1,7]naphthyridin-2-yl)ethyl)-3-methylphenoxy)ethoxy)ethoxy)-1,1-difluoropropylphosphonic acid], the “% Alum bound in Histidine buffer” value [1] is reported as 98.2% and the EC50 (human TLR7) is reported as 1640 nM.
In the case of `Cc1ccc2c(c1)nc(N)c1ncc(CCc3ccc(OCCOCCC(F)(F)P(=O)(O)O)cc3C)cc12` [Compound 7, 3-(2-(4-(2-(5-amino-8-methylbenzo[f][1,7]naphthyridin-2-yl)ethyl)-3-methylphenoxy)ethoxy)-1,1-difluoropropylphosphonic acid], the EC50 (human TLR7) is reported as 1010 nM.
In the case of `Cc1ccc2c(c1)nc(N)c1ncc(CCc3ccc(OCc4ccc(CC(F)(F)P(=O)(O)O)cc4)cc3C)cc12` [Compound 8, 2-(4-((4-(2-(5-amino-8-methylbenzo[f][1,7]naphthyridin-2-yl)ethyl)-3-methylphenoxy)methyl)phenyl)-1,1-difluoroethylphosphonic acid], the EC50 (human TLR7) is reported as 375 nM.
Work on `COc1ccc(CCc2cnc3c(N)nc4cc(C(=O)C(F)(F)P(=O)(O)O)ccc4c3c2)c(C)c1` [Compound 9, 2-(5-amino-2-(4-methoxy-2-methylphenethyl)benzo[f][1,7]naphthyridin-8-yl)-1,1-difluoro-2-oxoethylphosphonic acid] yielded an EC50 (human TLR7) of 390 nM.
In the case of `COc1ccc(CCc2cnc3c(N)nc4cc(/C=C/P(=O)(O)O)ccc4c3c2)c(C)c1` [Compound 10, (E)-2-(5-Amino-2-(4-methoxy-2-methylphenethyl)benzo[f][1,7]naphthyridin-8-yl)vinylphosphonic acid], the EC50 (human TLR7) is reported as 153 nM.
Work on `COc1ccc(CCc2cnc3c(N)nc4cc(CCP(=O)(O)O)ccc4c3c2)c(C)c1` [Compound 11, 2-(5-amino-2-(4-methoxy-2-methylphenethyl)benzo[f][1,7]naphthyridin-8-yl)ethylphosphonic acid] yielded an EC50 (human TLR7) of 90 nM.
Work on `COc1ccc(CCc2cnc3c(N)nc4cc(/C=C(\F)P(=O)(O)O)ccc4c3c2)c(C)c1` [Compound 12, (E)-2-(5-Amino-2-(4-methoxy-2-methylphenethyl)benzo[f][1,7]naphthyridin-8-yl)-1-fluorovinylphosphonic acid] yielded an EC50 (human TLR7) of 201 nM.
`Cc1ccc2c(c1)nc(N)c1ncc(CCc3ccc(OCc4cccc(P(=O)(O)O)c4)cc3C)cc12` [Compound 13, 3-((4-(2-(5-amino-8-methylbenzo[f][1,7]naphthyridin-2-yl)ethyl)-3-methylphenoxy)methyl)phenylphosphonic acid] showed an EC50 (human TLR7) of 1050 nM.
With `COc1ccc(CCc2cnc3c(N)nc4cc(C(=O)P(=O)(O)O)ccc4c3c2)c(C)c1` [Compound 14, 5-amino-2-(4-methoxy-2-methylphenethyl)benzo[f][1,7]naphthyridine-8-carbonylphosphonic acid] the EC50 (human TLR7) was 885 nM.
`Cc1cc(OCCCP(=O)(O)O)ccc1CCc1cnc2c(N)nc3cc(CCC(=O)O)ccc3c2c1` [Compound 15, 3-(5-amino-2-(2-methyl-4-(3-phosphonopropoxy)phenethyl)benzo[f][1,7]naphthyridin-8-yl)propanoic acid] gave an EC50 (human TLR7) of 65 nM.
With `Cc1cc(OCCOCCOCCC(F)(F)P(=O)(O)O)ccc1CCc1cnc2c(N)nc3cc(CCC(=O)O)ccc3c2c1` [Compound 17, 3-(5-amino-2-(4-(2-(2-(3,3-difluoro-3-phosphonopropoxy)ethoxy)ethoxy)-2-methylphenethyl)benzo[f][1,7]naphthyridin-8-yl)propanoic acid] the “% Alum bound in Histidine buffer” value [1] was 96.2% and the EC50 (human TLR7) was 5 nM.
`Cc1cc(OCCOCCOCCOCCP(=O)(O)O)ccc1CCc1cnc2c(N)nc3cc(CCC(=O)O)ccc3c2c1` [Compound 18, 3-(5-amino-2-(2-methyl-4-(2-(2-(2-(2-phosphonoethoxy)ethoxy)ethoxy)ethoxy)phenethyl)benzo[f][1,7]naphthyridin-8-yl)propanoic acid] gave an EC50 (human TLR7) of 964 nM.
For `Cc1cc(OCCOCCC(F)(F)P(=O)(O)O)ccc1CCc1cnc2c(N)nc3cc(CCC(=O)O)ccc3c2c1` [Compound 19, 3-(5-amino-2-(4-(2-(3,3-difluoro-3-phosphonopropoxy)ethoxy)-2-methylphenethyl)benzo[f][1,7]naphthyridin-8-yl)propanoic acid], the “% Alum bound in Histidine buffer” value [1] was 96.0%.
For `Cc1cc(OCCOCCP(=O)(O)O)ccc1CCc1cnc2c(N)nc3cc(CCC(=O)O)ccc3c2c1` [Compound 21, 3-(5-amino-2-(2-methyl-4-(2-(2-phosphonoethoxy)ethoxy)phenethyl)benzo[f][1,7]naphthyridin-8-yl)propanoic acid], the EC50 (human TLR7; [2]) was 204 nM.
`Cc1ccc2c(c1)nc(N)c1ncc(CCc3ccc(OCCP(=O)(O)O)cc3C)cc12` [Compound 22, 2-(4-(2-(5-amino-8-methylbenzo[f][1,7]naphthyridin-2-yl)ethyl)-3-methylphenoxy)ethylphosphonic acid] gave an EC50 (human TLR7) of 1160 nM.
Compound `Cc1ccc2c(c1)nc(N)c1ncc(CCc3ccc(OCCCCCCP(=O)(O)O)cc3C)cc12` [Compound 23, 6-(4-(2-(5-amino-8-methylbenzo[f][1,7]naphthyridin-2-yl)ethyl)-3-methylphenoxy)hexylphosphonic acid] has an EC50 (human TLR7) of 791 nM.
In the case of `Cc1ccc2c(c1)nc(N)c1ncc(CCc3ccc(OCCCCCC(F)(F)P(=O)(O)O)cc3C)cc12` [Compound 24, 6-(4-(2-(5-amino-8-methylbenzo[f][1,7]naphthyridin-2-yl)ethyl)-3-methylphenoxy)-1,1-difluorohexylphosphonic acid], the EC50 (human TLR7) is reported as 4260 nM.
In the case of `Cc1ccc2c(c1)nc(N)c1ncc(CCc3ccc(OCc4ccc(CP(=O)(O)O)cc4)cc3C)cc12` [Compound 25, 4-((4-(2-(5-amino-8-methylbenzo[f][1,7]naphthyridin-2-yl)ethyl)-3-methylphenoxy)methyl)benzylphosphonic acid], the EC50 (human TLR7) is reported as 975 nM.
For `Cc1ccc2c(c1)nc(N)c1ncc(CCc3ccc(OCCOCCOCCP(=O)(O)O)cc3C)cc12` [Compound 26, 2-(2-(2-(4-(2-(5-amino-8-methylbenzo[f][1,7]naphthyridin-2-yl)ethyl)-3-methylphenoxy)ethoxy)ethoxy)ethylphosphonic acid], the EC50 (human TLR7) was 2590 nM.
Compound `Cc1ccc2c(c1)nc(N)c1ncc(CCc3ccc(OCCCCCP(=O)(O)O)cc3C)cc12` [Compound 27, 5-(4-(2-(5-amino-8-methylbenzo[f][1,7]naphthyridin-2-yl)ethyl)-3-methylphenoxy)pentylphosphonic acid] has an EC50 (human TLR7) of 921 nM.
For `Cc1ccc2c(c1)nc(N)c1ncc(CCc3ccc(OCCCCP(=O)(O)O)cc3C)cc12` [Compound 28, 4-(4-(2-(5-amino-8-methylbenzo[f][1,7]naphthyridin-2-yl)ethyl)-3-methylphenoxy)butylphosphonic acid], the EC50 (human TLR7) was 524 nM.
